Assay [1] concerns S. aureus MRSA 3126. The conditions noted are these: 24 hours at 37° C.
Assay [2] deals with S. aureus MRSA 0027. The conditions noted are these: 24 hours at 37° C.
Assay [3] relates to S. aureus MRSA 5157. The conditions noted are these: 24 hours at 37° C.
For assay [4], the system named is S. aureus MRSA 1635. The conditions noted are these: 24 hours at 37° C.
Assay [5] deals with S. aureus MRSA 4761. The conditions noted are these: 24 hours at 37° C.
In assay [6] the test system is S. aureus MRSA 5159. Particulars: 24 hours at 37° C.
In assay [7] the test system is S. aureus MRSA 3-359. Particulars: 24 hours at 37° C.
Assay [8] has as its system S. aureus MRSA 2-122. Particulars: 24 hours at 37° C.
The subject of assay [9] is S. aureus MRSA 1630. Particulars: 24 hours at 37° C.
For assay [10], the system named is S. aureus MRSA 1870. The conditions noted are these: 24 hours at 37° C.
In assay [11] the test system is S. aureus MRSA 3511. Particulars: 24 hours at 37° C.
In assay [12] the test system is S. aureus MRSA 5156. The conditions noted are these: 24 hours at 37° C.
The test system of assay [13] is S. aureus MRSA 3518. Particulars: 24 hours at 37° C.
In assay [14] the test system is S. aureus. Particulars: 24 hours at 37° C.
Assay [15] relates to S. aureus. In words: microbe, parasite or virus in culture. The conditions noted are these: Staphylococcus aureus, 24 h.
Assay [16] concerns S. aureus MRSA 3126. In words: microbe, parasite or virus in culture. Particulars: Staphylococcus aureus, 24 h.
The test system of assay [17] is S. aureus MRSA 0027. Nature of the assay: microbe, parasite or virus in culture. The conditions noted are these: Staphylococcus aureus, 24 h.
Assay [18] has as its system S. aureus MRSA 5157. In words: microbe, parasite or virus in culture. The conditions noted are these: Staphylococcus aureus, 24 h.
Assay [19] deals with S. aureus MRSA 1635. In words: microbe, parasite or virus in culture. The conditions noted are these: Staphylococcus aureus, 24 h.
The subject of assay [20] is S. aureus MRSA 4761. In words: microbe, parasite or virus in culture. The conditions noted are these: Staphylococcus aureus, 24 h.
The test system of assay [21] is S. aureus MRSA 5159. Nature of the assay: microbe, parasite or virus in culture. The conditions noted are these: Staphylococcus aureus, 24 h.
The subject of assay [22] is S. aureus MRSA 3-359. Nature of the assay: microbe, parasite or virus in culture. Particulars: Staphylococcus aureus, 24 h.
In assay [23] the test system is S. aureus MRSA 2-122. In words: microbe, parasite or virus in culture. Particulars: Staphylococcus aureus, 24 h.
Assay [24] relates to S. aureus MRSA 1630. Nature of the assay: microbe, parasite or virus in culture. The conditions noted are these: Staphylococcus aureus, 24 h.
Assay [25] concerns S. aureus MRSA 1870. Nature of the assay: microbe, parasite or virus in culture. The conditions noted are these: Staphylococcus aureus, 24 h.
Assay [26] concerns S. aureus MRSA 3511. In words: microbe, parasite or virus in culture. The conditions noted are these: Staphylococcus aureus, 24 h.
Assay [27] relates to S. aureus MRSA 5156. In words: microbe, parasite or virus in culture. The conditions noted are these: Staphylococcus aureus, 24 h.
Assay [28] concerns S. aureus MRSA 3518. Nature of the assay: microbe, parasite or virus in culture. The conditions noted are these: Staphylococcus aureus, 24 h.

≈ marks a conversion by molar mass, not a printed value. Like-named read-outs stand apart in the source and are kept apart here.

Regarding `CC[C@H](C)[C@H](NC(=O)CN)C(=O)NCC(=O)N[C@@H](C)C(=O)N[C@H](C(=O)N[C@@H](CC(C)C)C(=O)N[C@@H](CCCCN)C(=O)N[C@H](C(=O)N[C@@H](CC(C)C)C(=O)N[C@H](C(=O)N[C@H](C(=O)NCC(=O)N[C@@H](CC(C)C)C(=O)N1CCC[C@H]1C(=O)N[C@@H](C)C(=O)N[C@@H](CC(C)C)C(=O)N[C@H](C(=O)N[C@@H](CO)C(=O)N[C@@H](Cc1c[nH]c2ccccc12)C(=O)N[C@H](C(=O)N[C@@H](CCCCN)C(=O)N[C@@H](CCCNC(=N)N)C(=O)N[C@@H](CCCCN)C(=O)N[C@@H](CCCNC(=N)N)C(=O)N[C@@H](CCC(N)=O)C(=O)N[C@@H](CCC(N)=O)C(N)=O)[C@@H](C)CC)[C@@H](C)CC)[C@@H](C)O)[C@@H](C)O)C(C)C)C(C)C` [Melittin, melittin], the MIC in [1] turned out to be 2 µM (≈ 5.69 µg/mL); in [2] it was 2 µM (≈ 5.69 µg/mL); in assay [3] it was 2 µM (≈ 5.69 µg/mL); in assay [4], 2 µM (≈ 5.69 µg/mL); in [5], 4 µM (≈ 11.4 µg/mL); in [6] it was 8 µM (≈ 22.8 µg/mL). Also, the MIC in [7], in assay [8], in [9], in [10], in assay [11] and in [12] was 4 µM (≈ 11.4 µg/mL) each time. The same compound returned an MIC in assay [13] of 4 µM (≈ 11.4 µg/mL).
Turning to gentamycin, the MIC in assay [14] was 1 µM; in assay [1], 32 µM; in assay [2], 64 µM; in assay [3] it was 16 µM; in assay [4], greater than 256 µM; in assay [5] it was 32 µM. For the same compound, the MIC in assay [6] was 16 µM; in [7] it was 64 µM; in [8] it was 128 µM; in [9], 64 µM; in [10] it was 16 µM; in [11], greater than 256 µM. The MIC in assay [12] and in assay [13] was greater than 256 µM each time.
On to `CC[C@H]1OC(=O)[C@H](C)[C@@H](O[C@H]2C[C@@](C)(OC)[C@@H](O)[C@H](C)O2)[C@H](C)[C@@H](O[C@@H]2O[C@H](C)C[C@H](N(C)C)[C@H]2O)[C@](C)(O)C[C@@H](C)C(=O)[C@H](C)[C@@H](O)[C@]1(C)O` [Erythromycin, erythromycin], for which the MIC in assay [15] is 1 µM (≈ 0.734 µg/mL); in assay [16], 128 µM (≈ 93.9 µg/mL); in assay [17] it was greater than 256 µM; in assay [18], 16 µM (≈ 11.7 µg/mL); in assay [19] it was greater than 256 µM; in assay [20], greater than 256 µM. The MIC in assay [21] is 16 µM (≈ 11.7 µg/mL); in assay [22], greater than 256 µM; in assay [23] it was greater than 256 µM; in [24] it was greater than 256 µM; in assay [25] it was greater than 256 µM; in assay [26], greater than 256 µM. In addition, the MIC in assay [27] and in assay [28] was greater than 256 µM each time.

(Values after patent US20190038714A1, “ANTI-INFLAMMATORY COMPOSITION COMPRISING CLAVASPIRIN PEPTIDE ANALOGUE AS EFFECTIVE INGREDIENT” (INDUSTRY-ACADEMIC COOPERATION FOUNDATION, CHOSUN UNIVERSITY, priority 2015, published 2019).)
